Legend:
Experiment in all cases: relative viability (nuclei count vs DMSO), 5 days (fraction); higher = more cells survive
TGX 221 + Navitoclax = compound: CC1=CN2C(=O)C=C(N=C2C(=C1)C(C)NC3=CC=CC=C3)N4CCOCC4 [TGX 221] + CC1(C)CCC(c2ccc(Cl)cc2)=C(CN2CCN(c3ccc(C(=O)NS(=O)(=O)c4ccc(N[C@H](CCN5CCOCC5)CSc5ccccc5)c(S(=O)(=O)C(F)(F)F)c4)cc3)CC2)C1 [Navitoclax] (partner 0.5 µM)
In short: (§1)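 Lung cancer cell lines in 1536-well plates were dosed by pin tool the day after seeding, either with one drug alone or with a fixed anchor-drug dose plus five library-drug doses (not always all listed) in √10 steps. After 5 days, cells were fixed and their nuclei stained in one step (final 0.05% Triton X-100, 1% formaldehyde, 1 ug/ml Hoechst), then counted on 4× images. Relative viability is the nuclei count in treated wells divided by that in vehicle wells. Values are medians of duplicate plates.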

TGX 221 + Palbociclib = compound: CC1=CN2C(=O)C=C(N=C2C(=C1)C(C)NC3=CC=CC=C3)N4CCOCC4 [TGX 221] + CC(=O)c1c(C)c2cnc(Nc3ccc(N4CCNCC4)cn3)nc2n(C2CCCC2)c1=O [Palbociclib] (partner 0.5 µM)
In short: as §1

[1] = compound: C1=CC=C(C(=C1)C2=CC=C(C=C2)C3=CSC4=C3C(=C(C(=O)N4)C#N)O)O + CC1(C)CCC(c2ccc(Cl)cc2)=C(CN2CCN(c3ccc(C(=O)NS(=O)(=O)c4ccc(N[C@H](CCN5CCOCC5)CSc5ccccc5)c(S(=O)(=O)C(F)(F)F)c4)cc3)CC2)C1 [Navitoclax] (partner 0.5 µM)
In short: as §1

[2] = compound: O=C(CCCCCCNC(=O)c1cnc(N(c2ccccc2)c2ccccc2)nc1)NO [Ricolinostat] + Nc1nc2[nH]cc(CCc3ccc(C(=O)N[C@@H](CCC(=O)O)C(=O)O)cc3)c2c(=O)[nH]1 [Pemetrexed] (partner 0.2 µM)
In short: as §1

Cell Line	relative viability (TGX 221 + Navitoclax; first compound 0.08 µM)	relative viability (TGX 221 + Navitoclax; first compound 0.253 µM)	relative viability (TGX 221 + Navitoclax; first compound 0.8 µM)	relative viability (TGX 221 + Navitoclax; first compound 2.53 µM)	relative viability (TGX 221 + Navitoclax; first compound 8 µM)	relative viability (TGX 221 + Palbociclib; first compound 0.08 µM)	relative viability (TGX 221 + Palbociclib; first compound 0.253 µM)	relative viability (TGX 221 + Palbociclib; first compound 0.8 µM)	relative viability (TGX 221 + Palbociclib; first compound 2.53 µM)	relative viability (TGX 221 + Palbociclib; first compound 8 µM)	relative viability ([1]; first compound 0.08 µM)	relative viability ([1]; first compound 0.253 µM)	relative viability ([1]; first compound 0.8 µM)	relative viability ([1]; first compound 2.53 µM)	relative viability ([1]; first compound 8 µM)	relative viability ([2]; first compound 0.08 µM)	relative viability ([2]; first compound 0.253 µM)	relative viability ([2]; first compound 0.8 µM)	relative viability ([2]; first compound 2.53 µM)
NCI-H1975	1.03	1.13	0.989	0.903	0.805	0.532	0.558	0.629	0.452	0.526	0.958	1.25	1.15	1.22	0.731	0.329	0.279	0.277	0.269
NCI-H1993	0.761	0.848	0.884	0.831	0.82	0.54	0.607	0.54	0.519	0.459	0.951	0.925	1.05	0.781	0.879	0.549	0.581	0.615	0.547
NCI-H2009	1.13	1.16	1.17	1.02	0.927	0.216	0.191	0.118	0.175	0.166	1.06	1.08	1.21	1.17	1.09	0.977	1.02	0.965	0.92
NCI-H2023	0.987	0.965	0.988	0.925	0.758	0.328	0.337	0.269	0.342	0.212	0.891	0.89	0.953	1.03	1.16	0.196	0.192	0.208	0.163
NCI-H2085	1.11	0.978	0.951	0.622	0.626	0.506	0.481	0.43	0.35	0.291	1.12	1.31	1.06	1.25	1.01	–	0.799	0.738	0.758
NCI-H2087	0.989	0.898	1.06	0.945	0.952	0.214	0.234	0.237	0.21	0.248	1.02	1.05	1.1	1.15	0.994	0.656	0.646	0.608	0.584
NCI-H2126	0.831	0.835	0.837	0.752	0.817	0.348	0.341	0.342	0.354	0.308	0.866	0.924	0.798	0.884	0.951	0.509	0.708	0.619	0.583
NCI-H2170	0.572	0.64	0.594	0.541	0.51	0.332	0.423	0.393	0.365	0.334	0.616	0.683	0.601	0.561	0.465	0.247	0.242	0.281	0.244
NCI-H2228	0.856	0.949	0.609	0.931	0.644	0.692	0.689	0.989	0.675	0.719	1	1.12	0.828	1.12	0.848	0.311	0.31	0.285	0.345
NCI-H2347	0.796	0.681	0.598	0.432	0.49	0.423	0.427	0.465	0.391	0.415	0.642	0.781	0.776	0.79	0.647	0.409	0.382	0.429	0.449
NCI-H2405	0.701	0.815	0.804	0.668	0.636	0.482	0.484	0.504	0.456	0.482	0.924	1.04	0.887	0.776	0.767	0.916	1.04	1.06	1.12
NCI-H3122	1.09	1.03	1.02	1.09	1.01	0.168	0.154	0.208	0.169	0.184	1.01	1.11	1	1.01	1.07	0.18	0.205	0.207	0.198
PC-3 [JPC-3]	0.722	0.768	0.847	0.806	0.863	0.522	0.516	0.541	0.499	0.566	0.913	0.816	0.849	0.765	0.808	0.845	1.11	0.738	1
PC-14	0.951	1	0.961	1.01	0.926	0.539	0.408	0.543	0.577	0.397	0.951	0.992	1.15	1.1	0.798	0.147	0.139	0.141	0.195
RERF-LC-KJ	–	0.78	0.913	0.8	1.14	1.06	0.979	1.09	0.905	0.914	0.777	0.902	0.976	0.715	0.811	0.492	0.427	0.447	0.374
SK-LU-1	0.392	0.84	0.726	0.786	0.772	0.342	0.359	0.357	0.379	0.317	0.891	0.799	0.946	0.898	0.742	1.06	0.97	0.949	0.864
